Assay results from PubChem BioAssay (NCI).
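In this assay, cells in 96-well plates receive the compound at five concentrations for 48 hours. Endpoints are linearly interpolated between the surrounding concentrations. TGI: concentration producing complete growth inhibition.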 Where a SMILES comes first, the peptide text is derived from it. [ ]: non-standard residue; d: D form.

Tests used:
Assay in all cases: NCI tumour cell line growth inhibition, 48 h
SF-268 CNS = tested on: SF-268 CNS
DMS 273 small cell lung = tested on: DMS 273 small cell lung
SNB-19 CNS = tested on: SNB-19 CNS
A549 NSCLC = tested on: A549 NSCLC
P388/ADR leukemia = tested on: P388/ADR leukemia
P388 leukemia = tested on: P388 leukemia
NCI-H460 lung = tested on: NCI-H460 lung
SN12C renal = tested on: SN12C renal
HOP-62 NSCLC = tested on: HOP-62 NSCLC
A498 renal = tested on: A498 renal
XF 498 CNS = tested on: XF 498 CNS
HCC-2998 colon = tested on: HCC-2998 colon
HCT-15 colon = tested on: HCT-15 colon
HOP-18 NSCLC = tested on: HOP-18 NSCLC
UACC-257 melanoma = tested on: UACC-257 melanoma
U251 CNS = tested on: U251 CNS
LOX IMVI melanoma = tested on: LOX IMVI melanoma
MOLT-4 leukemia = tested on: MOLT-4 leukemia
RXF 393 renal = tested on: RXF 393 renal
SF-539 CNS = tested on: SF-539 CNS
COLO 205 colon = tested on: COLO 205 colon
SN12K1 renal = tested on: SN12K1 renal
OVCAR-3 ovarian = tested on: OVCAR-3 ovarian
HOP-92 NSCLC = tested on: HOP-92 NSCLC
K-562 leukemia = tested on: K-562 leukemia
CCRF-CEM leukemia = tested on: CCRF-CEM leukemia
KM12 colon = tested on: KM12 colon
OVCAR-4 ovarian = tested on: OVCAR-4 ovarian
NCI-H23 lung = tested on: NCI-H23 lung
SNB-78 CNS = tested on: SNB-78 CNS
NCI/ADR-RES ovarian = tested on: NCI/ADR-RES ovarian
UACC-62 melanoma = tested on: UACC-62 melanoma
SK-MEL-2 melanoma = tested on: SK-MEL-2 melanoma
SK-OV-3 ovarian = tested on: SK-OV-3 ovarian
DLD-1 colon = tested on: DLD-1 colon
OVCAR-5 ovarian = tested on: OVCAR-5 ovarian
IGROV1 ovarian = tested on: IGROV1 ovarian
UO-31 renal = tested on: UO-31 renal
NCI-H226 lung = tested on: NCI-H226 lung
RPMI-8226 leukemia = tested on: RPMI-8226 leukemia
SNB-75 CNS = tested on: SNB-75 CNS
SK-MEL-5 melanoma = tested on: SK-MEL-5 melanoma
SW-620 colon = tested on: SW-620 colon
HL-60(TB) leukemia = tested on: HL-60(TB) leukemia
MCF7 breast = tested on: MCF7 breast
SF-295 CNS = tested on: SF-295 CNS
HCT-116 colon = tested on: HCT-116 colon
MALME-3M melanoma = tested on: MALME-3M melanoma
M19-MEL melanoma = tested on: M19-MEL melanoma
OVCAR-8 ovarian = tested on: OVCAR-8 ovarian
KM20L2 colon = tested on: KM20L2 colon
HT29 colon = tested on: HT29 colon
NCI-H522 lung = tested on: NCI-H522 lung
SK-MEL-28 melanoma = tested on: SK-MEL-28 melanoma
EKVX NSCLC = tested on: EKVX NSCLC
RXF-631 renal = tested on: RXF-631 renal
ACHN renal = tested on: ACHN renal
786-0 renal = tested on: 786-0 renal
LXFL 529 NSCLC = tested on: LXFL 529 NSCLC
M14 melanoma = tested on: M14 melanoma
SR leukemia = tested on: SR leukemia
TK-10 renal = tested on: TK-10 renal
CAKI-1 renal = tested on: CAKI-1 renal
DMS 114 small cell lung = tested on: DMS 114 small cell lung

Measured: TGI

CC(C)C[C@H](NC(=O)[C@H](CC(C)C)NC(=O)[C@@H](Cc1c[nH]c2ccccc12)NC(=O)[C@H](Cc1ccccc1)NC(=O)[C@@H](Cc1c[nH]c2ccccc12)NC(=O)[C@H](CCC(N)=O)NC(=O)[C@H](CCC(N)=O)NC(=O)[C@H]1CCCN1C(=O)[C@@H](N)CCCCN)C(N)=O (H-K[dP]QQ[dW]F[dW]LL-NH2)
not listed: RXF-631 renal | ACHN renal | 786-0 renal | LXFL 529 NSCLC | M14 melanoma | SR leukemia | TK-10 renal | CAKI-1 renal | DMS 114 small cell lung
> 100 µM: all other assays above

COc1cc2c(cc1OC)[C@@H](Nc1ccc(F)cc1)C1COC(=O)[C@@H]1C2c1cc(OC)c(O)c(OC)c1 (stereo partly specified)
2.51 µM: 786-0 renal
4.03 µM: U251 CNS
13.7 µM: SN12C renal
7.78 µM: A498 renal
0.626 µM: HL-60(TB) leukemia
7 µM: SK-OV-3 ovarian
19.9 µM: UACC-62 melanoma
33.3 µM: COLO 205 colon
10.4 µM: DMS 114 small cell lung
> 85.8 µM: OVCAR-4 ovarian
0.282 µM: SR leukemia
97.5 µM: SNB-78 CNS
> 48 µM: SNB-75 CNS
63 µM: TK-10 renal
4.26 µM: SF-539 CNS
6.28 µM: SF-295 CNS
> 64.5 µM: KM12 colon
> 38.8 µM: OVCAR-8 ovarian
40.5 µM: DLD-1 colon
18.9 µM: NCI-H522 lung
71.8 µM: RXF 393 renal
> 79.6 µM: UACC-257 melanoma
11.8 µM: K-562 leukemia
> 67.1 µM: SF-268 CNS
> 82.7 µM: RXF-631 renal
3.76 µM: CAKI-1 renal
8.41 µM: DMS 273 small cell lung
10.5 µM: M14 melanoma
0.21 µM: MOLT-4 leukemia
> 58.3 µM: HT29 colon
1.64 µM: NCI-H226 lung
> 24.7 µM: XF 498 CNS
2.16 µM: NCI-H460 lung
23.2 µM: SK-MEL-5 melanoma
> 43.4 µM: LOX IMVI melanoma
> 88.8 µM: MALME-3M melanoma
> 38.5 µM: SW-620 colon
2.49 µM: ACHN renal | HOP-62 NSCLC
> 54.2 µM: KM20L2 colon
18.6 µM: NCI-H23 lung
> 32.1 µM: HCT-15 colon
9.9 µM: HCC-2998 colon
2.45 µM: RPMI-8226 leukemia
15.4 µM: UO-31 renal
15 µM: A549 NSCLC
0.846 µM: CCRF-CEM leukemia
> 60.9 µM: SK-MEL-2 melanoma
not listed: P388/ADR leukemia | P388 leukemia | SN12K1 renal | HOP-92 NSCLC | NCI/ADR-RES ovarian | MCF7 breast
> 100 µM: all other assays above

O=C1/C(=N\O)S(=O)(=O)c2ccccc21
not listed: P388/ADR leukemia | P388 leukemia | XF 498 CNS | SN12K1 renal | OVCAR-3 ovarian | NCI-H23 lung | NCI/ADR-RES ovarian | MCF7 breast | SK-MEL-28 melanoma | EKVX NSCLC
> 100 µM: all other assays above

COc1ccc(COC2CC(OC)OC(C)C2OC(=O)c2ccccc2)cc1 (stereo unspecified)
> 93.5 µM: NCI-H522 lung
32.9 µM: KM20L2 colon
> 71.3 µM: MALME-3M melanoma
39.6 µM: HT29 colon
> 84 µM: HCT-116 colon
81.5 µM: DMS 114 small cell lung
> 59.5 µM: HCT-15 colon
70.7 µM: UO-31 renal
> 88.4 µM: ACHN renal
> 95 µM: COLO 205 colon | OVCAR-3 ovarian
67.9 µM: LOX IMVI melanoma
31.9 µM: SK-MEL-5 melanoma
> 91.8 µM: DLD-1 colon
49.7 µM: HL-60(TB) leukemia
> 91.1 µM: M19-MEL melanoma
58.2 µM: SR leukemia
65.9 µM: NCI-H226 lung
> 96.6 µM: RXF 393 renal
> 92.6 µM: NCI-H23 lung
> 94.7 µM: OVCAR-5 ovarian
> 81.8 µM: LXFL 529 NSCLC
49.4 µM: XF 498 CNS
40.1 µM: MOLT-4 leukemia
46.7 µM: RPMI-8226 leukemia
not listed: P388/ADR leukemia | P388 leukemia | SN12K1 renal | NCI/ADR-RES ovarian | MCF7 breast
> 100 µM: all other assays above
